Assay results published in patent US20050107289A1, “Anti-microbial peptides and compositions” (priority 2001, published 2005).
≈ marks a conversion by molar mass, not a printed value. Marks after values point to notes of the source that are not given here. Non-standard residues stand in square brackets, D forms with d. Residues, ends and D or L forms follow the SMILES beside them.

Key:
[1] = tested on: S. aureus (MRSA) ATCC 33591; assay type: cell-based, Staphylococcus aureus
Summary of the method: (§1)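 Overnight bacterial cultures, diluted 4000 times to roughly 2.5×10^5 cfu/ml, are added to 2-fold peptide dilution series. Peptide series span approximately 400-2 μg/ml as prepared in DMSO/aqueous sucrose, before mixing with inoculum. Testing follows NCCLS M7-A4 broth dilution, chiefly the microdilution format.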

E. coli JM109(DE3) = assay type: cell-based, Escherichia coli; settings: JM109
Summary of the method: as §1

murine red blood cells = test: Red blood cell hemolysis; assay type: cell-based, mouse
Summary of the method: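 Washed murine erythrocytes at 5% in saline with 10% FBS were exposed to serial peptide dilutions for 30 min at 37° C. Supernatant absorbance at 560 nm was read, with saline as 0% and 1% Triton X-100 as 100% hemolysis.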

[2] = tested on: vancomycin-resistant Enterococus faecalis (VRE)(ATCC 51575); assay type: cell-based, Enterococcus faecalis; set-up: key to VRE (in vitro activity): peptide concentration in μg/ml (broth dilution assay)
Summary of the method: as §1

[3] = tested on: Bacillus cereus ATCC 11778; assay type: cell-based
Summary of the method: as §1

[4] = tested on: Streptococcus pneumoniae (ATCC 6301); assay type: cell-based
Summary of the method: as §1

[5] = tested on: Bacillus subtilis ATCC 43223; test: MIC, Bacillus subtilis; assay type: cell-based; settings: data from MDS Panlabs Pharmacology Services
Description: (§2) The antimicrobial activity of the peptides was determined using a broth dilution assay essentially as descried in the guidelines of the National Committee for […] (NCCLS) [National Committee for Clinical Laboratory Standards. Methods for dilution antimicrobial susceptibility tests for bacteria that grow aerobically. Fourth edition. Approved Standard (1997). Document M7-A4. […] The microdilution method has the advantages of requiring less amount of peptide for each assay and the possibility of multiple simultaneous inoculations and was used in most studies. Several of the strains of bacteria tested are further described in Table 3.

[6] = tested on: Staphylococcus aureus ATCC25923; test: MIC, Staphylococcus aureus ATCC25923; assay type: cell-based; settings: data from MDS Panlabs Pharmacology Services
Description: as §2

[7] = tested on: Listeria monocytogenes ATCC19115; test: MIC, Listeria monocytogenes; assay type: cell-based
Description: as §2
(§3) Preparation of peptide solutions. Stock peptide solutions were prepared in 5% DMSO in aq. sucrose (9%). Determination of peptide concentrations was done by quantitative HPLC analysis using known concentrations of internal standards and/or by measuring UV absorption of tryptophane-containing peptide solutions in H2O (λ=280 εTrp: 5690). Serial 2-fold dilutions were made in the above DMSO/aq. sucrose (9%) mixture with concentrations ranging approximately 400-2 μg/ml and aliquots were dispensed in test tubes (100 μl) for the macrodilution test or in microtiter plates (20 μl) for the microdilution assays.
(§4) Inoculum preparation. […]

[8] = tested on: Enterococcus faecalis vancomycin-resistant clinical isolate; assay type: cell-based; settings: data from MDS Panlabs
Description: as §2

[9] = tested on: Streptococcus pneumoniea erythromycin- and ampicillin-resistant clinical isolate; assay type: cell-based, Streptococcus pneumoniae; settings: data from MDS Panlabs
Description: as §2

[10] = tested on: Salmonella typhimurium ATCC 14028; test: MIC, Salmonella typhimurium; assay type: cell-based
Description: as §2, §3, §4

[11] = Cytotoxicity to M21 melanoma cells; assay type: cell-based; settings: human, read-out: M21 (melanoma) LD50

Compound: CC(C)C[C@@H]1NC(=O)[C@@H](Cc2c[nH]c3ccccc23)NC(=O)[C@H](CCCNC(=N)N)NC(=O)[C@@H](CCC(N)=O)NC(=O)[C@H](CCCCN)NC(=O)[C@@H](Cc2c[nH]c3ccccc23)NC(=O)[C@H](CC(C)C)NC(=O)[C@@H](Cc2c[nH]c3ccccc23)NC1=O [SEQ ID NO:9, cyclo-[Lys-D-Gln-Arg-D-Trp-Leu-D-Trp-Leu-D-Trp]] (cyclo(K[dQ]R[dW]L[dW]L[dW]))
- MRSA MIC ([1]; ATCC 33591): 12 mg/L
- S. aureus (MRSA) MIC ([1]; ATCC 33591): 8 mg/L
- MRSA (in vitro activity) ([1]; Table 9, media a: anti-microbial media-3 (AM-3)): 12
- E. coli MIC (E. coli JM109(DE3)): 80 mg/L
- RBC Hemolysis (HD50) (murine red blood cells): 40
- Red blood cell (mouse) HD50 (murine red blood cells): 45^j μg/ml
- VRE MIC ([2]; ATCC 51575): 12 mg/L
- VRE (in vitro activity) ([2]; Table 9, media a: AM-3): 12
- B. cerius MIC [3]: 3 mg/L
- MIC Bacillus cereus [3]: 2 mg/L (≈ 1.67 µM)
- S. pneum. MIC [4]: 4 mg/L
- MIC Bacillus subtilis [5]: 3^b μg/ml
- MIC Staphylococcus aureus [6]: 3^b μg/ml
- MIC Listeria monocytogenes [7]: 20 mg/L (≈ 16.7 µM)
- MIC Enterococcus faecalis [8]: 10^b μg/ml
- MIC Streptococcus pneumoniea [9]: 10^b μg/ml
- MIC Salmonella typhimurium [10]: >70 mg/L
- CC50 [11]: > 75 mg/L
